For assay [1], the target named is Dual specificity protein kinase CLK3 (Homo sapiens, UniProt P49761). Put plainly: Selectivity interaction (KinomeScan (DiscoverX)) EUB0000655a CLK3. Conditions: at 10 µM.
The target in assay [2] is T1, Serine/threonine-protein kinase TNNI3K (Homo sapiens) (UniProt Q59H18).
T1 sequence (whole entry): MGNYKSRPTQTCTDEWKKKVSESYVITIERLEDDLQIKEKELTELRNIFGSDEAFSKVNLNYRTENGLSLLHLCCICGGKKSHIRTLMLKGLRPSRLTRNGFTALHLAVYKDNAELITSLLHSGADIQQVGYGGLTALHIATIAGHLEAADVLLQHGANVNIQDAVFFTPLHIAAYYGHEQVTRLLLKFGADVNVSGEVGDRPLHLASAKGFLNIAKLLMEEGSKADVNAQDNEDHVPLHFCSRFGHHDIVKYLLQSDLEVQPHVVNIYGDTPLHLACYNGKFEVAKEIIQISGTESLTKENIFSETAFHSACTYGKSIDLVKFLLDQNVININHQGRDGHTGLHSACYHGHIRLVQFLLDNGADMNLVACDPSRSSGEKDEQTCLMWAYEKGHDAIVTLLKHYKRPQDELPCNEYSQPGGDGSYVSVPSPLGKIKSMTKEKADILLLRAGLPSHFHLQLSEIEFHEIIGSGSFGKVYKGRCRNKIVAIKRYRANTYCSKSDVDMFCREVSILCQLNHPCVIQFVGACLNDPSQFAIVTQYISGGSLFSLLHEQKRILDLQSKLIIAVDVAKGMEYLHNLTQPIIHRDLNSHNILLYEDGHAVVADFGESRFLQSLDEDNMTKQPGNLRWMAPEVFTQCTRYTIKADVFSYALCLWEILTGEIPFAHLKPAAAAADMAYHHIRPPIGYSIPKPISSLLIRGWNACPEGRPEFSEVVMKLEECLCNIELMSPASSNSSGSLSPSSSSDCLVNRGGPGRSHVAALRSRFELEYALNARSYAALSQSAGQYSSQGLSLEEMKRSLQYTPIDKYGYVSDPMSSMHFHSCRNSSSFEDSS
Put plainly: Selectivity interaction (KinomeScan (DiscoverX)) EUB0000045b TNNI3K.

Assay [3] concerns the target Cyclin-dependent kinase 2 (Homo sapiens, UniProt P24941). Put plainly: Selectivity interaction (KinomeScan (DiscoverX)) EUB0000666a CDK2. Conditions: at 10 µM.
For assay [4], the system named is Proto-oncogene tyrosine-protein kinase receptor Ret (Homo sapiens), P07949 [G691S]. The assay can be described thus: Selectivity interaction (LanthaScreen Eu Kinase Binding Assay) EUB0001632a RET. Conditions: at 10 µM. In general terms: Time-resolved FRET reads energy transfer from a long-lived donor to a nearby acceptor.
Assay [5] relates to T2, Receptor-type tyrosine-protein kinase FLT3 (Homo sapiens), P36888 [D835Y].
T2 sequence (whole entry): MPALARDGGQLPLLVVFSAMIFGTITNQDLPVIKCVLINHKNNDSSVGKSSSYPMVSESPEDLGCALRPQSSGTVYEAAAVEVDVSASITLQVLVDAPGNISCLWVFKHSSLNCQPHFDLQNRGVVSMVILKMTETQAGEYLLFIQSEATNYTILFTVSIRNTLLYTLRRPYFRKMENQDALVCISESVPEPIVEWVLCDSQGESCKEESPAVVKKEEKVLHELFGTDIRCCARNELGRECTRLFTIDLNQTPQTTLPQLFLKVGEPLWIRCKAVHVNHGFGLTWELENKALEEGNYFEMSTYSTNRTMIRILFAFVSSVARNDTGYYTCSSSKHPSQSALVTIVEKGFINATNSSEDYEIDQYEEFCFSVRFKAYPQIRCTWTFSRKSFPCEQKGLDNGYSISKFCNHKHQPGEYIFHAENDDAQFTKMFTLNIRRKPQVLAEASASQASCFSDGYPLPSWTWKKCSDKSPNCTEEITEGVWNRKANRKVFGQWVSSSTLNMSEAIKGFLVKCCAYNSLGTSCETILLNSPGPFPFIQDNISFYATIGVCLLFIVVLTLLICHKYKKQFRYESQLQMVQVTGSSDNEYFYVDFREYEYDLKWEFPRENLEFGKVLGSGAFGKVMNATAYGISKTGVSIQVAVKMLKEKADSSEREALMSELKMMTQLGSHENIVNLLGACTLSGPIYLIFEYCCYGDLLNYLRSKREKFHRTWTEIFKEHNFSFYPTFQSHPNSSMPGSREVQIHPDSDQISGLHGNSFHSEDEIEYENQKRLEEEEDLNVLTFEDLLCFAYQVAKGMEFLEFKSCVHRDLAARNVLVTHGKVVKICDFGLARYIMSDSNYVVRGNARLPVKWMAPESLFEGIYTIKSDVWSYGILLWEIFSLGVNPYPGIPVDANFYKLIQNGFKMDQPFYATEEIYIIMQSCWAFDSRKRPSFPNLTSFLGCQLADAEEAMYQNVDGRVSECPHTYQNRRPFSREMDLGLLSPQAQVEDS
The assay can be described thus: (§1) Selectivity interaction (KinomeScan (DiscoverX)) EUB0000229b FLT3. Conditions: at 1 µM.

In assay [6] the test system is T3, Receptor-type tyrosine-protein kinase FLT3 (Homo sapiens), P36888 [K663Q].
T3 sequence (whole entry): T2 sequence (whole entry) with K663Q, Y835D
The description is as §1. Conditions: at 1 µM.

Positions count from the first letter of the chain named.

The values that follow come from ChEMBL document CHEMBL5465560, “Selectivity Literature for EUbOPEN Chemogenomic Library” (2024).

Chain of Proto-oncogene tyrosine-protein kinase receptor Ret (Homo sapiens), P07949 [G691S] (P07949 whole entry G691S): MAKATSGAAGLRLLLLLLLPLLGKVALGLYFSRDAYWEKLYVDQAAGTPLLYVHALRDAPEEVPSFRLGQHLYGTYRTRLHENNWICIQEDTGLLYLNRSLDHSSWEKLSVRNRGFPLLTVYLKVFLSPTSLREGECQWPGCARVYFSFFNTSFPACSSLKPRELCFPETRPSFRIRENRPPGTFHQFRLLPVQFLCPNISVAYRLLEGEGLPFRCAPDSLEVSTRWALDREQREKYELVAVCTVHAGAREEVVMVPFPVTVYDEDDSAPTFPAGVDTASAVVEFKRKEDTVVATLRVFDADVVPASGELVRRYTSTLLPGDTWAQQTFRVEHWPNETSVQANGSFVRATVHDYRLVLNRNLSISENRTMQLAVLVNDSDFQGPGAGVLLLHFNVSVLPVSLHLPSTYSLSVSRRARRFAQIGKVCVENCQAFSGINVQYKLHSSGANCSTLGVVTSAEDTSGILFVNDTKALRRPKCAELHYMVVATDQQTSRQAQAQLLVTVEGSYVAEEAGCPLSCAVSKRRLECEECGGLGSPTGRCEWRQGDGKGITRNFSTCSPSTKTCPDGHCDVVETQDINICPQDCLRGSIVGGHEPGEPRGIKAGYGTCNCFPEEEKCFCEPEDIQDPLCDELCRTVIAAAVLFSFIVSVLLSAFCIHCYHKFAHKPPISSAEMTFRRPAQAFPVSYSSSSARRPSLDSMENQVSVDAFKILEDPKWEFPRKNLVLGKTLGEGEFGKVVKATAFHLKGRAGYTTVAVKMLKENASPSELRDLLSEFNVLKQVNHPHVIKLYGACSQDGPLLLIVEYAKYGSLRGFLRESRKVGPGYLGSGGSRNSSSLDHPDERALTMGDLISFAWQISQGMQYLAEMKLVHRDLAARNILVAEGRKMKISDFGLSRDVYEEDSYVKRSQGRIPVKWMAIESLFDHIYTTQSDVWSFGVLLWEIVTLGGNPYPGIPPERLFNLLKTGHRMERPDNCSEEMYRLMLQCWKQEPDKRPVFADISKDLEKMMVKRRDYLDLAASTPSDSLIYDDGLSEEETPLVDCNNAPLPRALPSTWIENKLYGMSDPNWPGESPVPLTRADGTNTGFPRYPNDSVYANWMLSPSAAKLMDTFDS
Chain of Dual specificity protein kinase CLK3 (P49761 whole entry, looked up): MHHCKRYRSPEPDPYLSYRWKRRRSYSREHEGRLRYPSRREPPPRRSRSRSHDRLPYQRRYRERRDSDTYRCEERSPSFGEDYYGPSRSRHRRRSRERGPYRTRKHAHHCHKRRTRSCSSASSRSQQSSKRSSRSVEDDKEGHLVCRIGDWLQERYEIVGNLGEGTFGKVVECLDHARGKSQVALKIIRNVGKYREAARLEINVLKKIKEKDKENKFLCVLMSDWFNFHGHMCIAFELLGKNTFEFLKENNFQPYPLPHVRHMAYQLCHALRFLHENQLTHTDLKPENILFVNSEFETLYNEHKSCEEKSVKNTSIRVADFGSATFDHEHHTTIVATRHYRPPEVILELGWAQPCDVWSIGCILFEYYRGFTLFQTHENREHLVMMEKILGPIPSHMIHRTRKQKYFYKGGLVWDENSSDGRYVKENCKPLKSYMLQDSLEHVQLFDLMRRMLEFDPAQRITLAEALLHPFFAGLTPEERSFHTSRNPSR

In assay [1], `CN(C)CCOc1ccc(-c2nc(-c3ccncc3)c(-c3ccc4c(c3)CC/C4=N\O)[nH]2)cc1` returned a % of control of 98%.

In the case of `C=CC(=O)Nc1cc(-n2c(=O)ccc3cnc4ccc(-c5ccc(NS(C)(=O)=O)cc5)cc4c32)ccc1C`, the results for the % of control in assay [2] (at 1 µM) and in assay [2] (at 10 µM) were 100% and 77%, respectively. In assay [3], `O=C(NOC[C@H](O)CO)c1ccc(F)c(F)c1Nc1ccc(I)cc1F` displayed a % of control of 91%.

On to `Cn1cc(-n2cnc3c(NCc4nc5cc(Cl)c(Cl)cc5[nH]4)nc(N4CCOCC4)nc32)cn1`, for which, in assay [4], the % of inhibition is -30.5%.

Turning to `COc1cc(N(C)c2ccnc3ccc(C(F)(F)F)cc23)cc(OC)c1OC`, the % binding was determined as 69% in assay [5] and 76% in assay [6].
